Experiments:
Type in all cases: cell-based
[1] = system: phospho-ERK in A375 (Wild-type); experiment: In-Cell Western phospho-ERK, A375; details: Homo sapiens, A-375, 1 h; A375, one hour treatment; read-out: In-Cell Western A375 (Wild-type) Erk (P)
Procedure, shortened: (§1)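 One-hour compound treatment of cells plated a day earlier, 0.5% DMSO. Phospho-signal detected by in-cell immunofluorescence imaging; EC50 calculated.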

HCT116-G31D = experiment: Viability assay (CellTiterBlue, 72 hr) HCT116; details: Homo sapiens, HCT-116, GI50, CellTiterBlue, HCT116 K-Ras G13D, read-out: 72 hr Cell Viability HCT116 (G13D)
Procedure, shortened: (§2)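 GI50 calculation uses a window set by DMSO-treated wells (100% viability) and 100 uM tamoxifen (0%). Cells (1000/well) sit 18 hr at 37 °C, receive compound for 72 hr in 0.5% DMSO, then get CellTiterBlue for 3 hr before reading at Ex550/Em590.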

[2] = system: Ishikawa (K-Ras wild type cell line); experiment: Viability assay (CellTiterBlue, 72 hr) Ishikawa; details: Homo sapiens, GI50, CellTiterBlue, Ishikawa K-Ras wild-type
Procedure, shortened: as §2

[3] = system: phospho-ERK in HCC827 (Wild-type); experiment: In-Cell Western phospho-ERK, HCC827; details: Homo sapiens, 1 h; HCC827, one hour treatment; read-out: In-Cell Western HCC827 (Wild-type) Erk (P)
Procedure, shortened: as §1

Panc1-G12D = experiment: Viability assay (CellTiterBlue, 72 hr) Panc1; details: Homo sapiens, PANC-1, GI50, CellTiterBlue, Panc1 K-Ras G12D, read-out: 72 hr Cell Viability Panc1 (G12D)
Procedure, shortened: as §2

[4] = system: HCC827 (K-Ras wild type cell line); experiment: Viability assay (CellTiterBlue, 72 hr) HCC827; details: Homo sapiens, GI50, CellTiterBlue, HCC827 K-Ras wild-type
Procedure, shortened: as §2

Panc10.05-G12D = experiment: Viability assay (CellTiterBlue, 72 hr) Panc10.05; details: Homo sapiens, Panc1005, GI50, CellTiterBlue, Panc10.05 K-Ras G12D, read-out: 72 hr Cell Viability Panc10.05 (G12D)
Procedure, shortened: as §2

K-Ras G12D = target: T1, K-Ras G12D (Homo sapiens, UniProt P01116, G12D); experiment: G-LISA Ras activation, 293H cells transfected with G12D mutant; details: compound 1 hour
T1 construct: expressed in transfected cells; host or cells: 293H cells
Procedure, shortened: (§3)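 Active Ras was quantified by G-LISA in lysates of 293H cells transiently expressing wild-type or mutant Ras. Compounds (3.125-25 μM) were applied for 1 hour; only wild-type transfected cells were stimulated with 100 ng/ml EGF for 2 minutes.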

[5] = system: phospho-Akt in Panc10.05 (G12D); experiment: In-Cell Western phospho-Akt, Panc10.05; details: Homo sapiens, Panc1005, 1 h; Panc10.05, one hour treatment; read-out: In-Cell Western Panc10.05 (G12D) Akt (P)
Procedure, shortened: as §1

[6] = system: phospho-Akt in A375 (Wild-type); experiment: In-Cell Western phospho-Akt, A375; details: Homo sapiens, A-375, 1 h; A375, one hour treatment; read-out: In-Cell Western A375 (Wild-type) Akt (P)
Procedure, shortened: as §1

wild type K-Ras = target: T2, wild type K-Ras (Homo sapiens, UniProt P01116); experiment: G-LISA Ras activation, 293H cells transfected with Ras wild-type, EGF stimulated; details: compound 1 hour, then 100 ng/ml EGF 2 minutes
T2 construct: expressed in transfected cells; host or cells: 293H cells
Procedure, shortened: as §3

[7] = system: A375 (K-Ras wild type cell line); experiment: Viability assay (CellTiterBlue, 72 hr) A375; details: Homo sapiens, A-375, GI50, CellTiterBlue
Procedure, shortened: as §2

[8] = system: phospho-ERK in Panc10.05 (G12D); experiment: In-Cell Western phospho-ERK, Panc10.05; details: Homo sapiens, Panc1005, 1 h; Panc10.05, one hour treatment; read-out: In-Cell Western Panc10.05 (G12D) Erk (P)
Procedure, shortened: as §1

[9] = system: phospho-Akt in Panc1 (G12D); experiment: In-Cell Western phospho-Akt, Panc1; details: Homo sapiens, PANC-1, 1 h; Panc1, one hour treatment; read-out: In-Cell Western Panc1 (G12D) Akt (P)
Procedure, shortened: as §1

[10] = system: U87-MG (K-Ras wild type cell line); experiment: Viability assay (CellTiterBlue, 72 hr) U87-MG; details: Homo sapiens, U-87 MG, GI50, CellTiterBlue, U87-MG K-Ras wild-type
Procedure, shortened: as §2

[11] = system: phospho-ERK in Panc1 (G12D); experiment: In-Cell Western phospho-ERK, Panc1; details: Homo sapiens, PANC-1, 1 h; Panc1, one hour treatment; read-out: In-Cell Western Panc1 (G12D) Erk (P)
Procedure, shortened: as §1

T2 sequence (P01116 whole entry): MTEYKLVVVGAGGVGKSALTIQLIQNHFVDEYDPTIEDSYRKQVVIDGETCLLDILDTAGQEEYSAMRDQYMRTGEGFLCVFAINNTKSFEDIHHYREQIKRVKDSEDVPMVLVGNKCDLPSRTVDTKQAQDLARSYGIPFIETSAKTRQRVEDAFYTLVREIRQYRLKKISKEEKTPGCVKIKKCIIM
T1 sequence (P01116 whole entry G12D): as the sequence (P01116 whole entry) above, with G12D counted along it

SMILES | EC50 [1] [µM] | IC50 (HCT116-G31D) [µM] | IC50 [2] [µM] | EC50 [3] [µM] | IC50 (Panc1-G12D) [µM] | IC50 [4] [µM] | IC50 (Panc10.05-G12D) [µM] | IC50 (K-Ras G12D) [µM] | EC50 [5] [µM] | EC50 [6] [µM] | IC50 (wild type K-Ras) [µM] | IC50 [7] [µM] | EC50 [8] [µM] | EC50 [9] [µM] | IC50 [10] [µM] | EC50 [11] [µM]
Cc1nc(C(C)C)oc1C(=O)Nc1nc(-c2ccc3c(c2)CCC(=O)N3Cc2cccnc2)cs1 [Compound 91] | 5 | 1.5 | > 25 | 11 | 5 | 3 | 2 | 8.4 | 12 | 5 | 11.7 | > 25 | 1.4 | 4 | > 25 | 8
CCn1nc(C)c(C(=O)Nc2nc(-c3ccc4c(c3)CCC(=O)N4Cc3cccnc3)cs2)c1C [Compound 114, 1-ethyl-3,5-dimethyl-N-(4-(2-oxo-1-(pyridin-3-ylmethyl)-1,2,3,4-tetrahydroquinolin-6-yl)thiazol-2-yl)-1H-pyrazole-4-carboxamide] | 5 | 5 | > 25 | 4 | 22 | > 25 | 1.1 | 3 | 17 | > 25 | 6 | 6 | 1.9 | 17 | > 25 | 1.1
Cc1nc(C)c(C(=O)Nc2nc(-c3ccc4c(c3)CCC(=O)N4CCN(C)C)cs2)o1 [Compound 97, N-(4-(1-(2-(dimethylamino)ethyl)-2-oxo-1,2,3,4-tetrahydroquinolin-6-yl)thiazol-2-yl)-2,4-dimethyloxazole-5-carboxamide] | 8 | 5 | > 25 | > 25 | 9 | 5 | 4 | 8.1 | 12 | 10 | 12.6 | > 25 | 1.2 | 6 | > 25 | 5
COC(=O)CCN1C(=O)CCc2cc(-c3csc(NC(=O)c4oc(C)nc4C)n3)ccc21 [Compound 99, methyl 3-(6-(2-(2,4-dimethyloxazole-5-carboxamido)thiazol-4-yl)-2-oxo-3,4-dihydroquinoiolin-1 (2H)-yl)propanoate] | > 25 | > 25 | 4 | 5 | 6 | > 25 | 6 | 6.7 | 10 | > 25 | 10.2 | 6 | 5 | > 25 | > 25 | 14
Cn1nc(C(C)(C)C)cc1C(=O)Nc1nc(-c2ccc3c(c2)CCC(=O)N3)cs1 [Compound 43, 3-(tert-butyl)-1-methyl-N-(4-(2-oxo-1,2,3,4-tetrahydroquinolin-6-yl)thiazol-2-yl)-1H-pyrazole-5-carboxamide] | > 25 | > 25 | > 25 | 19 | > 25 | > 25 | > 25 | > 25 | > 25 | > 25 | > 25 | > 25 | > 25 | > 25 | > 25 | > 25
COC(=O)CCCN1C(=O)CCc2cc(-c3csc(NC(=O)c4oc(C)nc4C)n3)ccc21 [Compound 100, methyl 4-(6-(2-(2,4-dimethyloxazole-5-carboxamido)thiazol-4-yl)-2-oxo-3,4-dihydroquinolin-1 (2H)-yl)butanoate] | 4 | > 25 | 3 | 3 | 5 | > 25 | 5 | 5.5 | 7 | 5 | 9.5 | 4 | 3 | 25 | > 25 | 17
COCCCN1C(=O)CCc2cc(-c3csc(NC(=O)c4oc(C)nc4C)n3)ccc21 [Compound 96, N-(4-(1-(3-methoxypropyl)-2-oxo-1,2,3,4-tetrahydroquinolin-6-yl)thiazol-2-yl)-2,4-dimethyloxazole-5-carboxamide] | 6 | 3 | > 25 | 7 | 4 | 4 | 3 | 5 | 9 | 6 | 12.1 | > 25 | 1.1 | 4 | > 25 | 7
Cc1nn(C)cc1C(=O)Nc1nc(-c2ccc3c(c2)CCC(=O)N3Cc2cccnc2)cs1 [Compound 112, 1,3-dimethyl-N-(4-(2-oxo-1-(pyridin-3-ylmethyl)-1,2,3,4-tetrahydroquinolin-6-yl)thiazol-2-yl)-1H-pyrazole-4-carboxamide] | 8 | 2 | > 25 | 17 | 5 | 4 | 3 | 10 | 18 | 11 | 10.7 | > 25 | 1 | 5 | > 25 | 4
CCc1nc(C)c(C(=O)Nc2nc(-c3ccc4c(c3)CCC(=O)N4Cc3cccnc3)cs2)s1 [Compound 106, 2-ethyl-4-methyl-N-(4-(2-oxo-1-(pyridin-3-ylmethyl)-1,2,3,4-tetrahydroquinoinolin-6-yl)thiazol-2-yl)thiazole-5-carboxamide] | 20 | 6 | > 25 | 7 | 12 | > 25 | 3 | 4.4 | > 25 | > 25 | 9.6 | 22 | 10 | 25 | > 25 | 5
Cc1nc(C)c(C(=O)Nc2nc(-c3ccc4c(c3)CCC(=O)N4C3CCCC3)cs2)o1 [Compound 69, N-(4-(1-cyclopentyl-2-oxo-1,2,3,4-tetrahydroquinolin-6-yl)thiazol-2-yl)-2,4-dimethyloxazole-5-carboxamide] | 3 | 2 | > 25 | 5 | 7 | 2 | 3 | 8.1 | 17 | 2 | 18.6 | > 25 | 2 | 6 | > 25 | 8
